Results taken from patent US20240239811A1, “5-(5-(PIPERIDIN-4-YL)THIENO[3,2-C]PYRAZOL-2-YL]INDAZOLE DERIVATIVES AND RELATED COMPOUNDS AS MODULATORS FOR SPLICING NUCLEIC ACIDS AND FOR THE T” (REMIX THERAPEUTICS INC., priority 2020, published 2024).
Structures can show the parent of a compound that is named as a salt.

Assays:
Format in all cases: cell-based
HTT mRNA = test: Splicing assay (RT-qPCR) monitoring HTT splice variants, canonical (CJ) and alternative (AJ) junction; conditions: 50% response, A673 or K562 cell line, 24 hours; for IC50: decrease in CJ mRNA; for AC50: increase in AJ mRNA
Procedure: (§1) Compounds described herein were used to modulate RNA transcript abundance in cells. The expression of a target mRNA was measured by detecting the formation of an exon-exon junction in the canonical transcript (CJ). A compound mediated exon-inclusion event was detected by observing an increase in formation of a new junction with an alternative exon (AJ). Real-time qPCR assays were used to detect these splicing switches and interrogate the potency of various compounds towards different target genes. A high-throughput real time quantitative PCR (RT-qPCR) assay was developed to measure these two isoforms of the mRNA (CJ and AJ) for an exemplary gene, HTT, together with a control housekeeping gene, GAPDH or GUSB or PPIA, used for normalization. Briefly, the A673 or K562 cell line was treated with various compounds described herein (e.g., compounds of Formula (I)). After treatment, the levels of the HTT mRNA targets were determined from each sample of cell lysate by cDNA synthesis followed by qPCR.
• Cells-to-CT 1-step kit: ThermoFisher A25602, Cells-to-CT lysis reagent: ThermoFisher 4391851C, TaqMan™ Fast Virus 1-Step Master Mix: ThermoFisher 4444436 • GAPDH: VIC-PL, ThermoFisher 4326317E (Assay: Hs99999905_ml)—used for K562/suspension cell lines • GUSB: VIC-PL, ThermoFisher 4326320E (Assay: Hs99999908_ml)—used for K562/suspension cell lines • PPIA: VIC-PL, ThermoFisher 4326316E (Assay: Hs99999904_ml)—used for A673/adherent cell lines
(§2) The A673 cell line was cultured in DMEM with 10% FBS. Cells were diluted with full growth media and plated in a 96-well plate (15,000 cells in 100ul media per well). The plate was incubated at 37° C. with 5% CO2 for 24 hours to allow cells to adhere. An 11-point 3-fold serial dilution of the compounds was made in DMSO then diluted in media in an intermediate plate. Compounds were transferred from the intermediate plate to the cell plate with the top dose at a final concentration of 10 uM in the well. Final DMSO concentration was kept at or below 0.25%. The cell plate was returned to the incubator at 37° C. with 5% CO2 for an additional 24 hours.
(§3) The K562 cell line was cultured in IMDM with 10% FBS. For K562, cells were diluted with full growth media and plated in either a 96-well plate (50,000 cells in 50 uL media per well) or a 384-well plate (8,000-40,000 cells in 45 uL media per well). An 11-point 3-fold serial dilution of the compounds were made in DMSO then diluted in media in an intermediate plate. Compound was transferred from the intermediate plate to the cell plate with the top dose at a final concentration of 10 uM in the well. Final DMSO concentration was kept at or below 0.25%. Final volume was 100 uL for 96-well plate and 50 uL for 384-well plate. The cell plate was then placed in an incubator at 37° C. with 5% CO2 for 24 hours.
The cells were then gently washed with 50 uL-100 uL cold PBS before proceeding to addition of lysis buffer. 30 uL-50 uL of room temperature lysis buffer with DNAse I (and optionally RNAsin) was added to each well. Cells were shaken/mixed thoroughly at room temperature for 5-10 minutes for lysis to take place and then 3 uL-5 uL of room temperature stop solution was added and wells were shaken/mixed again. After 2-5 minutes, the cell lysate plate was transferred to ice for RT-qPCR reaction setup. The lysates could also be frozen at −80° C. for later use.
In some cases, a direct lysis buffer was used. An appropriate volume of 3X lysis buffer (10 mM Tris, 150 mM NaCl, 1.5%-2.5% Igepal and 0.1-1 U/uL RNAsin, pH 7.4) was directly added to either K562 or A673 cells in media and mixed by pipetting 3 times. The plates were then incubated at room temperature with shaking/rocking for 20-50 minutes to allow for lysis to take place. After this time, the cell lysate plate was transferred to ice to set up for the RT-qPCR reactions. The lysates could also be frozen at −80° C. for later use. […]

SMN2 CJ mRNA = test: Gene panel canonical junction qPCR assay, SMN2; conditions: Table 6, decrease in CJ mRNA, read-out: SMN2 IC50 (decrease in CJ mRNA levels)
Procedure: as §1, §2, §3
(§4) The data analysis was performed by first determining the ΔCt vs the housekeeper gene. This ΔCt was then normalized against the DMSO control (ΔΔCt) and converted to RQ (relative quantification) using the 2^(−ΔΔCt) equation. The RQ were then converted to a percentage response by arbitrarily setting an assay window of 3.5 ΔCt for HTT-CJ and an assay window of 9 ΔCt for HTT-AJ. […] The percentage response was then fitted to the 4 parametric logistic equation to evaluate the concentration dependence of compound treatment. The increase in AJ mRNA is reported as AC50 (compound concentration having 50% response in AJ increase) while the decrease in CJ mRNA levels is reported as IC50 (compound concentration having 50% response in CJ decrease).
(§5) Additional studies were carried out for a larger panel of genes using the protocol provided above. The junction between flanking upstream and downstream exons was used to design canonical junction qPCR assays. At least one of the forward primer, reverse primer or the CY5-labeled 5′ nuclease probe (with 3′ quencher such as ZEN/Iowa Black FQ) was designed to overlap with the exon junction to capture the CJ mRNA transcript. BLAST was used to confirm the specificity of the probeset and parameters such as melting temperature, GC content, amplicon size, and primer dimer formation are considered during their design. Data for the decrease in CJ mRNA levels for three exemplary genes (HTT, SMN2, and Target C) analyzed in this panel are reported as IC50 (compound concentration having […] in CJ decrease).

Target C CJ mRNA = test: Gene panel canonical junction qPCR assay, Target C; conditions: Table 6, decrease in CJ mRNA, read-out: Target C IC50 (decrease in CJ mRNA levels)
Procedure: as §1, §2, §3, §4, §5

HTT CJ mRNA = test: Gene panel canonical junction qPCR assay, HTT; conditions: Table 6, decrease in CJ mRNA, read-out: HTT IC50 (decrease in CJ mRNA levels)
Procedure: as §1, §2, §3, §4, §5

SMILES	IC50 (HTT mRNA) [nM]	AC50 (HTT mRNA) [nM]	IC50 (SMN2 CJ mRNA) [nM]	IC50 (Target C CJ mRNA) [nM]	IC50 (HTT CJ mRNA) [nM]
Cn1cc2cc(-c3nc4sc(N5CCNCC5)cc4s3)cc(F)c2n1 [Compound 134, 7-fluoro-2-methyl-5-[5-(piperazin-1-yl)thieno[2,3-d][1,3]thiazol-2-yl]indazole]	100 to 1000	< 100	< 100	100 to 1000	100 to 1000
Cn1cc2cc(-c3cc4cn(C5CCNCC5)nc4s3)c(C#N)cc2n1 [Compound 211]	1000 to 10000	1000 to 10000	100 to 1000	1000 to 10000	1000 to 10000
Cn1cc2cc(-c3cc4cn([C@H]5CCNC[C@H]5F)nc4s3)cc(F)c2n1 (stereo in doubt) [Compound 182]	< 100	100 to 1000	< 100	100 to 1000	< 100
Cc1cn2nc(-n3cc4cc(C5CCNCC5)sc4n3)cc2c(C)n1 [Compound 164]	1000 to 10000	1000 to 10000	1000 to 10000	1000 to 10000	1000 to 10000
Cn1cc2cc(-c3cc4cn([C@@H]5CCNC[C@H]5F)nc4s3)cc(F)c2n1 [Compound 187]	< 100	< 100	< 100	100 to 1000	< 100
Cn1cc2cc(-c3cn4nc(C5CCNCC5)nc4s3)cc(F)c2n1 [Compound 102, 7-fluoro-2-methyl-5-[2-(piperidin-4-yl)-[1,2,4]triazolo[3,2-b][1,3]thiazol-5-yl]indazole]	100 to 1000	100 to 1000	< 100	100 to 1000	100 to 1000
CN(C)C1CCN(c2cc3sc(-c4cc(F)c5nn(C)cc5c4)nc3s2)CC1 [Compound 154, 1-[2-(7-fluoro-2-methylindazol-5-yl)thieno[2,3-d][1,3]thiazol-5-yl]-N,N-dimethylpiperidin-4-amine]	100 to 1000	100 to 1000	< 100	100 to 1000	100 to 1000
Cn1cc2c(F)cc(-n3cc4cc(C5CCNCC5)sc4n3)cc2n1 [Compound 174]	> 10000	> 10000	1000 to 10000	> 10000	> 10000
CN1CC2(C1)CN(c1cc3sc(-c4cc(F)c5nn(C)cc5c4)nc3s1)C2 [Compound 146, 7-fluoro-2-methyl-5-(5-[6-methyl-2,6-diazaspiro[3.3]heptan-2-yl]thieno[2,3-d][1,3]thiazol-2-yl)indazole]	100 to 1000	100 to 1000	< 100	100 to 1000	100 to 1000
Cc1cn2cc(-c3nc4sc(C5CCNCC5)cc4s3)cc(C)c2n1 [Compound 140, 4-(2-[2,8-dimethylimidazo[1,2-a]pyridin-6-yl]thieno[2,3-d][1,3]thiazol-5-yl)piperidine hydrochloride]	< 100	< 100	< 100	100 to 1000	< 100
Cc1cn2cc(-c3nc4sc(C5CCNCC5)cc4s3)cc(F)c2n1 [Compound 130, 4-(2-[8-fluoro-2-methylimidazo[1,2-a]pyridin-6-yl]thieno[2,3-d][1,3]thiazol-5-yl)piperidine hydrochloride]	< 100	< 100	< 100	< 100	< 100
Cc1cn2nc(-c3nc4sc(C5CCNCC5)cc4s3)cc(C)c2n1 [Compound 112, 4-(2-[2,8-dimethylimidazo[1,2-b]pyridazin-6-yl]thieno[2,3-d][1,3]thiazol-5-yl)piperidine]	< 100	< 100	< 100	< 100	< 100
Cn1cc2cc(-c3nc4sc(N5CCC56CCNCC6)cc4s3)cc(F)c2n1 [Compound 201, 1-[2-(7-fluoro-2-methylindazol-5-yl)thieno[2,3-d] [1,3]thiazol-5-yl]-1,7-diazaspiro[3.5]nonane]	> 10000	> 10000	> 10000	> 10000	> 10000
CN1CCC(n2cc3cc(-c4cc(F)c5nn(C)cc5c4)sc3n2)CC1 [Compound 150, 7-fluoro-2-methyl-5-[2-(1-methylpiperidin-4-yl)thieno[2,3-c]pyrazol-5-yl]indazole]	100 to 1000	100 to 1000	< 100	100 to 1000	100 to 1000
Cn1cc2cc(-c3cc4cn(C5CCNCC5)nc4s3)c(O)c(F)c2n1 [Compound 215]	100 to 1000	100 to 1000	< 100	100 to 1000	100 to 1000
Cn1cc2cc(-n3cc4cc(C5CCNCC5)sc4n3)c(O)cc2n1 [Compound 220]	1000 to 10000	1000 to 10000	1000 to 10000	1000 to 10000	1000 to 10000
